Assay results from patent US8008510B2, “Metalloprotein inhibitors” (The Regents of the University of California, priority 2004, dated 2011).

Target: MMP-3 (Homo sapiens, UniProt P08254)
Experiment: MMP-3 fluorescence-based inhibition assay

MMP-3, sequence (P08254 100-272 limits assumed): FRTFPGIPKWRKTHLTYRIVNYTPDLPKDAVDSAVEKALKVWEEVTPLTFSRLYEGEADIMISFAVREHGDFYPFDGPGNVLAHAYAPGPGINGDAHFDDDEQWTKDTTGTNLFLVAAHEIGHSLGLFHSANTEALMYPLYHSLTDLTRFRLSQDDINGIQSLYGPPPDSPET

| IC50 [µM] | inhibition at 50 µM (read-out: inhibition of MMP-3) [%] | Structure (SMILES) |
| --- | --- | --- |
| 90 | – | Cc1cc(=O)c(O)c(C(=O)Nc2ccc(-c3ccccc3)cc2)o1 [AM3] |
| – | 25 | O=C(NCc1ccc(-c2ccccc2)cc1)c1cc(=O)c(O)co1 [CA1] |
